In patent publication US20230235374A1, “High Throughput Assays for Detecting Translation Readthrough Inducers” (The Trustees of the University of Pennsylvania, priority 2021, published 2023):

Tests used:
Format in all cases: binding, shrimp (Artemia salina)
[1] = system: Small RNAs within Stop-POST5 complex; assay: AzAt photoincorporation into small RNAs (urea-PAGE, RNAse H fragments)
Procedure: FIG. 11 illustrates 8% Urea-PAGE resolution of small RNAs.
Photoaffinity labeling with [^3H]-AzAt. Samples in Buffer 4, typically 20 μL, were incubated in the dark (20 min for Stop-POST5 and 80S-IRES complexes, 2 min for release factors) with various concentrations of [^3H]-AzAt at 37° C., transferred to a UV-transparent cuvette which was covered with parafilm to prevent evaporation, and irradiated in a Rayonet photochemical reactor equipped with 300 nm UV lamps for 5 min at room temperature. This was followed by quenching with 2 mM DTT at 37° C. for 5 min under ambient light. The irradiation time gave complete photolysis of the phenyl azide moiety in AzAt. Photolysis was also complete at 5 min in the presence of 1 mM ataluren, ruling out internal filtering effects.
Stop-POST5 and 80S-IRES complexes. 1 μM solutions of either Stop-POST5 or 80S-S.IRES, determined by A260, were photolabeled by [^3H]-AzAt. The sample was then either directly purified by ultracentrifugation through a sucrose cushion to determine the photoincorporation stoichiometry in the complex, or subjected to phenol/chloroform extraction to determine the photoincorporation stoichiometry in the total RNA. To determine the photoincorporation background arising from incomplete removal of noncovalently bound photolyzed AzAt, AzAt was prephotolysed for 5 min before adding to the complex, followed by the 20 min incubation in dark at 37° C. and subsequent sucrose cushion purification or RNA extraction as described above.
(§1) RNaseH Fragment Assay. Total RNA was prepared from the ^3H-AzAt photoaffinity labeled ribosome by phenol-chloroform extraction. RNA: DNA duplexes were formed by incubating total RNA (0.2 μM) with an oligonucleotide pair (1 μM of each, sequences shown Table 1), flanking a specific RNA region, in 22.8 μL of water at 95° C. for 2 min, followed by annealing at 50° C. for 30 s and quenching on ice. Six units (1.2 μL) of RNase H (NEB) and 6 μl of 5×RNase H Reaction Buffer were next added to the RNA: DNA duplex and incubated at 37° C. for 1 hour, followed by phenol-chloroform extraction of RNA. The digested RNA was separated on 12% TBE-Urea PAGE gel, and the target band along with the adjacent upper and bottom gels were sliced by a 2 mm gel cutter. The gel slices were crushed and the ^3H labeled rRNA fragment was extracted in water by vigorously shaking at 70° C. for 30 min, or by overnight extraction in elution buffer (0.3M sodium acetate, 0.25% SDS, 1 mM EDTA). The slurry was removed by centrifugation and the eluted ^3H labeled rRNA in the supernatant was quantified. The stoichiometry of AzAt photoincorporation was calculated based on a gel recovery yield of 20±2%, determined using an authentic sample of [^3H]-Gln-tRNA^Gln.
Small RNAs. AzAt photoincorporation into the 4 small RNAs (CrPV-IRES, 5.8S rRNA, 5S rRNA, and tRNA) contained within POST5 was examined by one-dimensional (1D) urea-PAGE analysis, by RNA-Seq, and by RNAse H fragment assay (FIG. 11).

[2] = system: rRNA fragments I-IV of Stop-POST5; assay: RNaseH fragment assay, Stop-POST5
Procedure: as §1
(§2) Testing the functional pertinence of AzAt photolabeling of 18S A1195, 28S-A3093, 28S-A2672, and 28S-2669. An RNAse H fragment assay was employed to determine whether the potential functionally significant sites identified by LASER-seq correspond to ataluren binding sites relevant for termination activity. In this assay, oligonucleotide hybridization, RNase H digestion and polyacrylamide gel electrophoresis (PAGE) were used to determine the stoichiometry of [^3H]-AzAt photoincorporation into the three rRNA fragments that together include the four nucleotides of interest: Fragment I, 18S-A1195; Fragment II, 26S-A3093; Fragment III, 26S-A2669 and 26S-A2672 (Table 5). The separate addition of four potential competitors of AzAt binding (eRF1 alone, the stably bound eRF1.eRF3.GDPNP complex, ataluren, and the ataluren-like TRID GJ072) was used to test how these affected such photoincorporation. These experiments, the results of which are summarized in Table 5, were performed at two different AzAt concentrations. eRF1 and eRF1.eRF3.GDPNP effects were measured using 300 μM AzAt, paralleling the LASER-Seq PAL experiments.

[3] = system: rRNA fragments I-IV of 80S-IRES; assay: RNaseH fragment assay, 80S-IRES
Procedure: as §1, §2

[4] = PAL, 300 μM AzAt, alone or plus competing ligand named as label
[5] = Stop-POST5, PAL, 300 μM AzAt, alone or plus competing ligand named as label
[6] = 80S-IRES, PAL, 300 μM AzAt, alone or plus competing ligand named as label

effect on AzAt labeling of CrPV-IRES ([1]; 300 μM AzAt): partial but significant reduction
Photoincorporation yields into CrPV-IRES nts1-155 ([1]; PAL, 300 μM AzAt, alone (AzAt) or plus competing ligand named as label (eRF1 2 μM, eRF3 4 μM, GDPNP 1 mM)): 4.6 ± 1.4 mole %
Photoincorporation yields into 5S rRNA [1, 4]: 1.3 ± 0.2 mole %
Photoincorporation yields into 5.8S rRNA [1, 4]: 0.80 ± 0.02 mole %
Photoincorporation yields into CrPV-IRES All [1, 4]: 5.4 ± 0.6 mole %
Photoincorporation yields into CrPV-IRES nts156-221 [1, 4]: 2.9 ± 0.6 mole %
Photoincorporation yields into CrPV-IRES nts222-278 [1, 4]: 0.08 ± 0.11 mole %
Photoincorporation yields into tRNA^Gln [1, 4]: 2.2 ± 0.2 mole %
effect on AzAt labeling of CrPV-IRES fragments 1-155 and 156-221 ([1]; RNAse H fragment assay): Only minor decreases
Photoincorporation yields into RNAse H Fragment IV: 26S 1413-1476 ([2]; Stop-POST5, PAL, 300 μM AzAt, alone or plus competing ligand named as label (eRF1 2 μM, eRF3 4 μM, GDPNP 1 mM)): 0.20 ± 0.01%
Photoincorporation yields into RNAse H Fragment IV: 26S 1413-1476 ([3]; 80S.IRES, PAL, 300 μM AzAt, alone or plus competing ligand named as label): 0.30 ± 0.03%
Substance: eRF1/eRF3/GDPNP: stably bound ternary complex of eRF1, eRF3 and GDPNP used as competing ligand
Photoincorporation yields into 26S-A2669:A2672/ III: 26S 2638-2702 [2, 5]: 0.19 ± 0.02 mole %
Photoincorporation yields into 26S-A3093/ II: 26S 3069-3113 [2, 5]: 0.18 ± 0.10 mole %
Photoincorporation yields into 18S A1195/ I: 18S 1151-1206 ([2]; Stop-POST5, PAL, 300 μM AzAt, alone or plus competing ligand named as label (eRF1 2 μM, eRF3 4 μM, GDPNP)): 0.07 ± 0.03 mole %
effect on AzAt photoincorporation into Fragments I, II, and III ([2]; Stop-POST5 complex): strongly inhibited
Photoincorporation yields into 18S A1195/ I: 18S 1151-1206 [3, 6]: 0.56 ± 0.06 mole %
Photoincorporation yields into 26S-A2669:A2672/ III: 26S 2638-2702 [3, 6]: 0.94 ± 0.23 mole %
Photoincorporation yields into 26S-A3093/ II: 26S 3069-3113 [3, 6]: 0.55 ± 0.12 mole %
effect on AzAt photoincorporation into Fragment I ([3]; 80S.IRES complex): only partial inhibition
effect on AzAt photoincorporation into Fragments II and III ([3]; 80S.IRES complex): essentially no inhibition
